Experimental findings from PubChem BioAssay AID248 (DTP/NCI, 2004) are described below.

The subject of this test is L1210 leukemia ip in BDF1 mice, survival T/C. The experiment in a line: NCI In Vivo Anticancer Drug Screen. Data for tumor model L1210 Leukemia (intraperitoneal) in B6D2F1 (BDF1) mice. The conditions noted are these: endpoint: mean survival time, higher = longer survival. The gist of the method:
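Transplantable tumor model; survival measured in treated vs vehicle control mice. Value = treated/control.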

The mark [1] stands for this setting: dose: 25.0 mg/kg/injection, schedule: Q01DX009 (ip), vehicle: Klucel (hydroxypropylcellulose) (HPC).
Setting [2] is: dose: 50.0 mg/kg/injection, schedule: Q01DX009 (ip), vehicle: Klucel (hydroxypropylcellulose) (HPC).
Where [3] appears, read: dose: 100.0 mg/kg/injection, schedule: Q01DX009 (ip), vehicle: Klucel (hydroxypropylcellulose) (HPC).
[4] abbreviates: dose: 100.0 mg/kg/injection, schedule: Q04DX003 (ip), vehicle: saline with Tween-80.
Where [5] appears, read: dose: 200.0 mg/kg/injection, schedule: Q01DX009 (ip), vehicle: Klucel (hydroxypropylcellulose) (HPC).
The mark [6] stands for this setting: dose: 200.0 mg/kg/injection, schedule: Q04DX003 (ip), vehicle: saline with Tween-80.
[7] abbreviates: dose: 50.0 mg/kg/injection, schedule: Q01DX009 (ip), vehicle: saline.
Where [8] appears, read: dose: 100.0 mg/kg/injection, schedule: Q01DX009 (ip), vehicle: saline.
Where [9] appears, read: dose: 100.0 mg/kg/injection, schedule: Q04DX003 (ip), vehicle: saline.
The mark [10] stands for this setting: dose: 100.0 mg/kg/injection, schedule: Q04DX003 (ip), vehicle: Klucel (hydroxypropylcellulose) (HPC).
Where [11] appears, read: dose: 200.0 mg/kg/injection, schedule: Q04DX003 (ip), vehicle: Klucel (hydroxypropylcellulose) (HPC).
Where [12] appears, read: dose: 400.0 mg/kg/injection, schedule: Q04DX003 (ip), vehicle: saline with Tween-80.
Setting [13] is: dose: 200.0 mg/kg/injection, schedule: Q04DX003 (ip), vehicle: saline.
[14] abbreviates: dose: 400.0 mg/kg/injection, schedule: Q04DX003 (ip), vehicle: saline.
[15] abbreviates: dose: 100.0 mg/kg/injection, schedule: Q04DX002 (ip), vehicle: Klucel (hydroxypropylcellulose) (HPC).
[16] abbreviates: dose: 200.0 mg/kg/injection, schedule: Q04DX002 (ip), vehicle: Klucel (hydroxypropylcellulose) (HPC).
The mark [17] stands for this setting: dose: 100.0 mg/kg/injection, schedule: Q01DX009 (ip), vehicle: saline with Tween-80.
Where [18] appears, read: dose: 200.0 mg/kg/injection, schedule: Q01DX009 (ip), vehicle: saline with Tween-80.

Each structure is given as a SMILES string. Several values for one entry are separate records, joined by “and”; a condition that tells them apart may be missing. Equal values may be shown once. Toxic doses and inconclusive results are not listed.

As for `O=C1/C(=C/c2cccnc2)CCc2ccccc21`, the T/C was 98 % of control under setting [1]; 106 % of control under setting [2]; 97 % of control under setting [3]; 104 % of control under setting [4]; 112 % of control under setting [5]; 97 % of control under setting [6].
In the case of `NC(c1ccccc1)C(O)c1ccccc1` (configuration not stated), the T/C (dose: 37.5 mg/kg/injection, schedule: Q04DX003 (ip), vehicle: saline) is 98 % of control; the T/C (dose: 75.0 mg/kg/injection, schedule: Q04DX003 (ip), vehicle: saline) is 92 % of control; the T/C (dose: 150.0 mg/kg/injection, schedule: Q04DX003 (ip), vehicle: saline) was 101 % of control.
For the compound `O=S1(=O)CCCCO1`, the T/C (dose: 25.0 mg/kg/injection, schedule: Q01DX009 (ip), vehicle: saline) is 97 % of control; the T/C (dose: 25.0 mg/kg/injection, schedule: Q04DX003 (ip), vehicle: saline) is 102 % of control; the T/C under setting [7] was 101 % of control; the T/C (dose: 50.0 mg/kg/injection, schedule: Q04DX003 (ip), vehicle: saline) was 102 % of control; the T/C under setting [8] is 89 % of control; the T/C under setting [9] is 98 % of control.
Take `NCc1ccc(NC(=O)c2ccc(C(=O)Nc3ccc(CN)cc3)cc2)cc1`: the T/C runs as follows: (dose: 15.0 mg/kg/injection, schedule: Q01DX Z (ip), vehicle: water) 97 % of control; (dose: 20.0 mg/kg/injection, schedule: Q01DX Z (ip), vehicle: water) 102 % of control; (dose: 30.0 mg/kg/injection, schedule: Q01DX Z (ip), vehicle: water) 96 % of control; (dose: 40.0 mg/kg/injection, schedule: Q01DX Z (ip), vehicle: water) 102 % of control.
For the compound `CCOC(=O)C(C)Oc1cc(C)c(Cl)cc1Cl` (configuration not stated), the T/C reads like this: (dose: 50.0 mg/kg/injection, schedule: Q01DX001 (ip), vehicle: carboxymethylcellulose (CMC)) 96 % of control; (dose: 100.0 mg/kg/injection, schedule: Q01DX001 (ip), vehicle: carboxymethylcellulose (CMC)) 96 % of control; (dose: 200.0 mg/kg/injection, schedule: Q01DX001 (ip), vehicle: carboxymethylcellulose (CMC)) 107 % of control; (dose: 400.0 mg/kg/injection, schedule: Q01DX001 (ip), vehicle: carboxymethylcellulose (CMC)) 107 % of control.
As for `CC12CCC(c3cn(C(=O)c4cccnc4)nc31)C2(C)C` (configuration not stated), the T/C under setting [10] is 92 % of control; the T/C under setting [11] is 97 % of control; the T/C (dose: 400.0 mg/kg/injection, schedule: Q04DX003 (ip), vehicle: Klucel (hydroxypropylcellulose) (HPC)) is 95 % of control.
Take `NC(=S)NN=C1CCCCCCC1`: the T/C was 98 % of control (dose: 8.4 mg/kg/injection, schedule: Q01DX Z (ip), vehicle: methylcellulose (MC)); 101 % of control (dose: 23.0 mg/kg/injection, schedule: Q01DX Z (ip), vehicle: methylcellulose (MC)); 111 % of control (dose: 39.0 mg/kg/injection, schedule: Q01DX Z (ip), vehicle: methylcellulose (MC)).
On to `CC(C)c1ccccc1OS(=O)(=O)c1ccccc1`, for which the T/C is 91 % of control under setting [4], 95 % of control under setting [6] and 98 % of control under setting [12].
With `CCSc1ncc2cnccn12`, the T/C (dose: 25.0 mg/kg/injection, schedule: Q01DX009 (ip), vehicle: water) was 91 % of control; the T/C (dose: 50.0 mg/kg/injection, schedule: Q01DX009 (ip), vehicle: water) is 100 % of control; the T/C (dose: 100.0 mg/kg/injection, schedule: Q04DX003 (ip), vehicle: water) is 91 % of control.
Regarding `CCCCCCOc1ccc(C=Nc2ccc(C(=O)OCC)cc2)cc1`, the T/C was 96 % of control under setting [2], 97 % of control under setting [3] and 97 % of control under setting [5].
As for `CC12CC3CC(Br)(C1)CC(C(=O)O)(C3)C2` (configuration not stated), the T/C by setting is: under setting [7], 103 % of control; under setting [8], 96 % of control; under setting [9], 103 % of control; (dose: 200.0 mg/kg/injection, schedule: Q01DX009 (ip), vehicle: saline) 91 % of control; under setting [13], 101 % of control; under setting [14], 110 % of control.
On to `OC(CN1CCCCC1)c1ccc2oc3ccccc3c2c1` (configuration not stated), for which the T/C is, setting by setting: under setting [15], 110 % of control; under setting [16], 92 % of control.
`Cc1ccc2c(N=Nc3ccc(N(C)C)cc3)cccc2n1`: the T/C is 93 % of control (dose: 25.0 mg/kg/injection, schedule: Q01DX009 (ip), vehicle: saline with Tween-80); 93 % of control (dose: 50.0 mg/kg/injection, schedule: Q01DX009 (ip), vehicle: saline with Tween-80); 98 % of control under setting [17].
Turning to `Cc1cc(=O)[nH]cn1`, the T/C is 100 % of control under setting [9], 112 % of control under setting [13] and 94 % of control under setting [14].
For the compound `CNC(=N)c1ccc(NC(=N)c2ccc(NC(=N)c3ccc(NC(=N)c4ccc(C(=N)NC)cc4)cc3)cc2)cc1`, the T/C (dose: 4.4 mg/kg/injection, schedule: Q01DX015 (sc), vehicle: water) was 102 % of control; the T/C (dose: 5.5 mg/kg/injection, schedule: Q01DX Z (ip), vehicle: water) was 116 % of control; the T/C (dose: 6.7 mg/kg/injection, schedule: Q01DX015 (sc), vehicle: water) was 107 % of control; the T/C (dose: 7.5 mg/kg/injection, schedule: Q01DX001 (ip), vehicle: water) is 104 % of control; the T/C (dose: 10.0 mg/kg/injection, schedule: Q01DX015 (sc), vehicle: water) was 112 % of control; the T/C (dose: 15.0 mg/kg/injection, schedule: Q01DX001 (ip), vehicle: water) is 106 % of control. Besides, the T/C by setting is: (dose: 16.0 mg/kg/injection, schedule: Q01DX015 (ip), vehicle: water) 216 % of control; (dose: 22.0 mg/kg/injection, schedule: Q01DX Z (ip), vehicle: water) 191 % of control; (dose: 22.5 mg/kg/injection, schedule: Q01DX015 (sc), vehicle: water) 184 % of control; (dose: 30.0 mg/kg/injection, schedule: Q01DX001 (ip), vehicle: water) 106 % of control; (dose: 44.0 mg/kg/injection, schedule: Q01DX Z (ip), vehicle: water) 100 % of control.
Take `COc1ccc(C(CCl)(CCl)c2ccc(OC)c(C)c2)cc1C`: the T/C is 90 % of control under setting [17]; 100 % of control under setting [4]; 96 % of control under setting [18]; 94 % of control under setting [6]; 86 % of control (dose: 400.0 mg/kg/injection, schedule: Q01DX009 (ip), vehicle: saline with Tween-80); 92 % of control under setting [12].
Regarding `COc1ccc(C)cc1OC(CCC(C)C)C(C)=O` (configuration not stated), the T/C reads like this: (dose: 75.0 mg/kg/injection, schedule: Q01DX001 (ip), vehicle: carboxymethylcellulose (CMC)) 93 % of control; (dose: 150.0 mg/kg/injection, schedule: Q01DX001 (ip), vehicle: carboxymethylcellulose (CMC)) 96 % of control; (dose: 300.0 mg/kg/injection, schedule: Q01DX001 (ip), vehicle: carboxymethylcellulose (CMC)) 90 % of control.
As to `CCCC(C(=O)O)C(CCC)C(=O)O` (configuration not stated), the T/C was 92 % of control under setting [17] and 96 % of control under setting [18].
Take `COc1ccc(COC(=O)Oc2ccc(Cl)cc2)cc1OC`: the T/C by setting is: under setting [4], 96 % of control; under setting [6], 96 % of control; under setting [12], 101 % of control.
On to `CC(=O)C(N=Nc1ccccc1)C(C)=O`, for which the T/C reads like this: under setting [1], 94 % of control; under setting [2], 92 % of control; under setting [3], 97 % of control and 102 % of control.
For `S=C(c1ccccc1)N1CCOCC1`, the T/C under setting [15] was 100 % of control; the T/C under setting [16] is 111 % of control; the T/C (dose: 400.0 mg/kg/injection, schedule: Q04DX002 (ip), vehicle: Klucel (hydroxypropylcellulose) (HPC)) is 96 % of control.
In the case of `Cc1cccc(C)c1N1C(=O)C2C(C1=O)C1(Cl)C(Cl)=C(Cl)C2(Cl)C1(Cl)Cl` (configuration not stated), the T/C under setting [2] was 95 % of control, the T/C under setting [3] is 101 % of control, the T/C under setting [10] was 114 % of control and the T/C under setting [11] was 101 % of control.
